{"source": "paper PMC4844572", "about": "(SpringerPlus, 2016)", "test_system": "EstSTR1", "type": "biochemical, uncultured bacterium", "conditions": "competitive against 100 μM cephalothin; 10 mM MES pH 6.8, bovine serum albumin 20 μg/ml, enzyme 396 μM as printed; stands in Km column, footnote gives Ki", "data": [{"smiles": "CO/N=C(\\C(=O)N[C@@H]1C(=O)N2C(C(=O)O)=C(COC(C)=O)CS[C@H]12)c1csc(N)n1", "note": "[TAX, cefotaxime]", "values": [{"measurement": "Km (μM) / Wild", "result": "0.90 ± 0.004", "unit": "µM"}]}]}
